As usually defined, the IC50 is the concentration needed to halve the response being measured. A higher IC50 goes with a need for much substance.

For one data set, the system named is CNE-2. The data set is described as follows: Cytotoxicity against human CNE2 cells by CCK8 assay. It is filed as functional, cell-based. Background: Tetrazolium assays rely on reduction of a dye to a coloured formazan, in cell work by metabolically active cells.
The test system of the next data set is L02. The data set can be described thus: Cytotoxicity against human L02 cells by CCK8 assay. It is filed as cell-based.
Data set [1] deals with A549. The data set is described as follows: Cytotoxicity against human A549 cells by CCK8 assay. It is filed as functional, cell-based.
A short description of data set [2]: Cytotoxicity against HUVEC12 cells by CCK8 assay. It is filed as cell-based. The following applies: Homo sapiens.
The subject of another data set is MCF7. The data set can be described thus: Cytotoxicity against human MCF7 cells by CCK8 assay. It is filed as functional, cell-based.
For data set [3], the system named is HeLa. The data set is described as follows: Cytotoxicity against human HeLa cells by CCK8 assay. It is filed as functional, cell-based.
For another data set, the system named is HepG2. The data set can be described thus: Cytotoxicity against human HepG2 cells by CCK8 assay. It is filed as functional, cell-based.
A short description of data set [4]: Inhibition of serum-induced cell migration in HUVEC12 cells at 0.5 to 2 times IC50 measured up to 17 hrs by wound healing assay. It is filed as cell-based. The following applies: human.
Data set [5] has as its system HeLa. The data set can be described thus: Inhibition of serum-induced cell migration in human HeLa cells at 0.5 to 2 times IC50 measured up to 17 hrs by wound healing assay. It is filed as functional, cell-based.
The subject of data set [6] is A549. The data set can be described thus: Inhibition of serum-induced cell migration in human A549 cells at 0.5 to 2 times IC50 measured up to 46 hrs by wound healing assay. It is filed as functional, cell-based.

Active and inactive are the calls of the source. No cut-off for these calls is given here.

Consider `C[C@@H]1C[C@H](C)C[C@H](C)[C@@H](O)CC(=O)O[C@@H]([C@@H]2CCC[C@H]2C(=O)O)C/C=C/C=C(/C#N)[C@H](O)[C@@H](C)C1`, for which the IC50 in the data set on CNE-2 was 1.55 µM; with L02 it was 0.98 µM; with A549 [1], 1.69 µM; in [2], 1.44 µM; in the data set on MCF7, 0.12 µM; in the data set with HeLa [3], 2.19 µM. Further, the IC50 in the data set with HepG2 amounted to 2.19 µM.

On to `C[C@@H]1C[C@H](C)C[C@H](C)[C@@H](O)CC(=O)O[C@@H]([C@@H]2CCC[C@H]2C(=O)O)C/C=C\C=C(/C#N)[C@@H](O)[C@@H](C)C1`, for which the IC50 with CNE-2 stood at 1.27 µM; with L02 it was 7.26 µM; with A549 [1] it was 1.22 µM; in data set [2], 6.13 µM; in the data set with MCF7, 0.12 µM; in the data set on HeLa [3], 1.28 µM. In addition, in the data set with HepG2, half-maximal inhibition (IC50) required 2.05 µM. Further, the Activity result in [4] is recorded as “Non-Toxic”. Further, the inhibition entry in the data set on HeLa [5] and in the data set on A549 [6] was “Active” throughout.

As to `C[C@@H]1C[C@H](C)C[C@H](C)[C@@H](O)CC(=O)O[C@@H]([C@@H]2CCC[C@H]2C(=O)O)C/C=C\C=C(/C#N)[C@H](O)[C@@H](C)C1`, the IC50 in the data set with CNE-2 turned out to be 14.4 µM; with L02 it was 22.8 µM; with A549 [1], 15.2 µM; in data set [2] it was 14.3 µM; in the data set with MCF7 it was 1.15 µM; with HeLa [3] it was 15.1 µM. Further, the IC50 with HepG2 came out at 17.5 µM.

For `CC(=O)NC/C1=C/C=C/C[C@H]([C@@H]2CCC[C@H]2C(=O)O)OC(=O)C[C@H](O)[C@@H](C)C[C@@H](C)C[C@@H](C)C[C@H](C)[C@@H]1O`, the IC50 (in the data set on CNE-2; in the data set on L02; in the data set on A549 [1]; in data set [2]; in the data set on MCF7; in the data set on HeLa [3]) was more than 50 µM throughout. In addition, the IC50 in the data set on HepG2 is more than 50 µM. In addition, the inhibition result with HeLa [5] and in the data set with A549 [6] was “inactive” each time.

Regarding `COc1cccc2c1C(=O)c1c(O)c3c(c(O)c1C2=O)C[C@@](O)(C(=O)CO)C[C@@H]3O[C@H]1C[C@H](N)[C@H](O)[C@H](C)O1` [DOXORUBICIN], the IC50 with CNE-2 worked out at 3.52 µM; with L02 it was 13.2 µM; with A549 [1], 3.41 µM; in [2], 34.2 µM; in the data set with HepG2, 1.13 µM.

Turning to `C[C@@H]1C[C@H](C)C[C@H](C)[C@@H](O)CC(=O)O[C@@H]([C@@H]2CCC[C@H]2C(=O)O)C/C=C/C=C(/C#N)[C@@H](O)[C@@H](C)C1`, the IC50 with CNE-2 was found to be 9.35 µM; in the data set with L02, 8.73 µM; in the data set with A549 [1], 9.2 µM; in data set [2], 12 µM; in the data set on MCF7, 1.21 µM; in the data set with HeLa [3], 11.6 µM. In the data set with HepG2, this molecule yielded a concentration for half-maximal inhibition (IC50) of 14.6 µM.
